# Key:
# [1] = biological target: human D3 expressed in HEK cells (Homo sapiens, UniProt P35462); assay: Radioligand binding assay with [125I]IABN, D3R; settings: for D2R/D3R selectivity, (Ki for D2R)/(Ki for D3R): ratio of Ki values
# [2] = biological target: human D2 (long) expressed in HEK cells (Homo sapiens, UniProt P14416); assay: Radioligand binding assay with [125I]IABN, D2R
# [3] = biological target: human D3 receptor over-expressed in CHO-K1 cells (Homo sapiens, UniProt P35462); assay: PathHunter β-arrestin recruitment assay, competition with dopamine; assay type: cell-based; settings: 30 nM (EC80) dopamine, Mean ± SEM, at least three experiments
# Sequence of human D3 receptor over-expressed in CHO-K1 cells (P35462 whole entry): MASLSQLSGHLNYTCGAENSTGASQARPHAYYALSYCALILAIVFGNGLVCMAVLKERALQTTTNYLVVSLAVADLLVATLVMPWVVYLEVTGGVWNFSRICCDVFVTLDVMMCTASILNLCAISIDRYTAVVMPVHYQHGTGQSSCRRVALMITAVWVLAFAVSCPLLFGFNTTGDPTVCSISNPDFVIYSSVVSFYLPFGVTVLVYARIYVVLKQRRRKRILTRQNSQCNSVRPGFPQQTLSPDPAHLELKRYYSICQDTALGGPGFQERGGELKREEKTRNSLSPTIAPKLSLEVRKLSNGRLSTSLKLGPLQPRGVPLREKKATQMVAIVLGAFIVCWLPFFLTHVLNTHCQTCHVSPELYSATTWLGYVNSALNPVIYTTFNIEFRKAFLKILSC
# Sequence of human D3 expressed in HEK cells (P35462 whole entry): as above
# Sequence of human D2 (long) expressed in HEK cells (P14416 whole entry): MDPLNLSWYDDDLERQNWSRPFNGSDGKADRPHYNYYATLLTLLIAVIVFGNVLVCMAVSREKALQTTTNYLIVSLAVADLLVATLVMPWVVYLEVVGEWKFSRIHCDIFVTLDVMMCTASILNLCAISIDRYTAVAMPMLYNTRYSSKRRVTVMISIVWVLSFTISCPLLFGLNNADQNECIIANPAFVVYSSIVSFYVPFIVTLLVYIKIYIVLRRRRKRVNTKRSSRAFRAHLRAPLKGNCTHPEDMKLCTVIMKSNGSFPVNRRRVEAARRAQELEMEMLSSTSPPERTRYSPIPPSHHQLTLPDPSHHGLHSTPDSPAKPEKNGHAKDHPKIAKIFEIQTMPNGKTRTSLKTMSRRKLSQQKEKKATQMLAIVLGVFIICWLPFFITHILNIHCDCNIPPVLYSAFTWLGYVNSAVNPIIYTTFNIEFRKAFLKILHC
smiles,measurement,setting,value
"C=CCN1C[C@H](OCCN)C[C@H]1CNC(=O)c1cc(CCCF)cc(OC)c1OC [Compound 35a, N-(((2S,4R)-1-allyl-4-(2-aminoethoxy)pyrrolidin-2-yl)methyl)-5-(3-fluoropropyl)-2,3-dimethoxybenzamide]",higher affinity for D3R versus D2R,[1],11 fold
"C=CCN1C[C@@H](OCCCN)C[C@H]1CNC(=O)c1cc(CCCF)cc(OC)c1OC [Compound 40, N-(((2S,4S)-1-allyl-4-(3-aminopropoxy)pyrrolidin-2-yl)methyl)-5-(3-fluoropropyl)-2,3-dimethoxybenzamide]",Ki,[2],16.9 ± 0.9 nM
"CCN1C[C@H](OC(=O)Nc2ccc(-c3ccsc3)cc2)C[C@H]1CNC(=O)c1cc(CCCF)cc(OC)c1OC [Compound 47, (3R,5S)-1-ethyl-5-((5-(3-fluoropropyl)-2,3-dimethoxybenzamido)methyl)pyrrolidin-3-yl (4-(thiophen-3-yl)phenyl)carbamate]",IC50 in β-arrestin recruitment assay (inhibiting dopamine),[3],much lower potency
"C=CCN1C[C@H](OC(=O)Nc2ccc(-c3ccccn3)cc2)C[C@H]1CNC(=O)c1cc(CCCF)cc(OC)c1OC [Compound 37k, (3R,5S)-1-allyl-5-((5-(3-fluoropropyl)-2,3-dimethoxybenzamido)methyl)pyrrolidin-3-yl (4-(pyridin-2-yl)phenyl)carbamate]",IC50 in β-arrestin recruitment assay (inhibiting dopamine),[3],much lower potency
"C=CCN1C[C@H](OC(=O)Nc2ccc(-c3ccsc3)cc2)C[C@H]1CNC(=O)c1cc(CCCF)cc(OC)c1OC [Compound 37l, (3R,5S)-1-allyl-5-((5-(3-fluoropropyl)-2,3-dimethoxybenzamido)methyl)pyrrolidin-3-yl (4-(thiophen-3-yl)phenyl)carbamate]",IC50 in β-arrestin recruitment assay (inhibiting dopamine),[3],much lower potency
"C=CCN1C[C@@H](OC(=O)Nc2ccc(-c3ccsc3)cc2)C[C@H]1CNC(=O)c1cc(CCCF)cc(OC)c1OC [Compound 41, (3S,5S)-1-allyl-5-((5-(3-fluoropropyl)-2,3-dimethoxybenzamido)methyl)pyrrolidin-3-yl (4-(thiophen-3-yl)phenyl)carbamate]","D2R/D3R selectivity, (Ki for D2R)/(Ki for D3R)",[1],modest
"C=CCN1C[C@H](OC(=O)Nc2ccoc2)C[C@H]1CNC(=O)c1cc(CCCF)cc(OC)c1OC [Compound 37h, (3R,5S)-1-allyl-5-((5-(3-fluoropropyl)-2,3-dimethoxybenzamido)methyl)pyrrolidin-3-yl furan-3-ylcarbamate]","D2R/D3R selectivity, (Ki for D2R)/(Ki for D3R)",[1],higher affinity for D2R versus D3R

# — publication PMC10841072 (European journal of medicinal chemistry, 2023)
